Source: patent US20080089860A1, “Therapeutic compositions and methods useful in treating cancer” (priority 2006, published 2008)

Experiments:
C42 cells = test: C42 prostate cancer cell growth; assay type: cell-based, human
Description: (§1) For cell proliferation assays, cells were grown in 10% FCS culture medium containing various amounts of IFNs and/or sodium stibogluconate in 96 well plates and cultured at 37° C. for 3 or 6 days as indicated. The numbers of viable cells in proliferation assays were determined by MTT assays as described in Phatak et al., J. Immunol. 167, 3391 (2001).

intracellular Flag-PRL-1 = molecular target: T1, intracellular Flag-PRL-1 (Homo sapiens, UniProt Q93096); test: Immunocomplex PTPase assay, Flag-PRL-1 NIH3T3 transfectants; assay type: cell-based; details: cells treated 5 min
T1 construct: expressed in transfected cells
T1 sequence (Q93096 whole entry): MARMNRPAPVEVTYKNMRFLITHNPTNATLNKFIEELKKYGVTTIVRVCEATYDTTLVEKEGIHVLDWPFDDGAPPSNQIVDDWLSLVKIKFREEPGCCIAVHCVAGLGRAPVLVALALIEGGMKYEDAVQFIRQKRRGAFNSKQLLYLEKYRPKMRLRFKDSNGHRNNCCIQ
Description: (§2) Immunocomplex PTPase assays were performed to assess the effects of sodium stibogluconate on intracellular PTPases. Cells were untreated or treated with sodium stibogluconate for 5 minutes, washed with fresh medium and then lysed in cold lysis buffer (50 mM Tris, pH 7.4; 150 mM NaCl; 1% NP40; 2 mM PMSF; 20 μg/ml of Aprotinin). The lysates were incubated with an anti-Flag antibody in immunoprecipitation assays. The immunocomplexes were collected with protein G sepharose beads (Pharmacia) and washed in cold lysis buffer for 4 times. […] C. for 18 hrs. 100 µL of malachite green solution (UBI) was added to each reaction prior to measurement of OD660 to quantify the amounts of free phosphate cleaved by the PTPases from the peptide substrate (Pathak et al., J. Imumol. 167, 3391 (2001)). The remaining 10% contents of individual samples were analyzed by SDS-PAGE/Western blotting to quantify the relative amounts of the phosphatase proteins. […]
(§3) The effects of sodium stibogluconate on intracellular PTPases were assessed using NIH3T3 or WM9 transfectants. […]

DR cells = test: DR lymphoma cell growth, MTT assay; assay type: cell-based, human; details: day 6; single agent at 50 μg/ml and 100 μg/ml
Description: as §1

[1] = test system: Stat1 tyrosine phosphorylation; test: IFN-alpha-induced Stat1 tyrosine phosphorylation, Western blotting; assay type: cell-based, human
Description: Cell lysates were prepared by lysing cells in cold lysis buffer for 30 min and cleared by centrifuging at 14,000 rpm at 4° C. for 15 min. For SDS-PAGE, cell lysates were mixed with equal volume of 2×SDS-PAGE sample buffer, heated at 90° C. for 5 min and separated in 10% SDS-PAGE gels. Cellular proteins in SDS-PAGE gels were transferred to nitrocellulose membrane (Schleicher & Schuell, Keene, N.H.), blocked in 5% milk, probed with antibodies and detected by using an enhanced chemiluminescence kit (ECL, Amersham, Arlington Heights, Ill.).

Renca cells = test: Renca cell growth in culture, MTT assay; assay type: cell-based, murine; details: SSG 6.25-200 μg/ml, 6 days; listed as SSG
Excerpt: Renca (Murphy, G. P., and W. J. Hrushesky. 1973. A murine renal cell carcinoma. J Natl Cancer Inst 50:1013), Jurkat (Gillis, S., and J. Watson. 1980. Biochemical and biological characterization of lymphocyte regulatory molecules. V. Identification of an interleukin 2-producing human leukemia T cell line. J Exp Med 152:1709) and WM9 (Forsberg, K., 1. Valyi-Nagy, C. H. Heldin, M. Herlyn, and B. Westermark. 1993. Platelet-derived growth factor (PDGF) in oncogenesis: development of a vascular connective tissue stroma in xenotransplanted human melanoma producing PDGF-BB. Proc Natl Acad Sci USA 90:393) cell lines were obtained from a colleague at the Cleveland Clinic Foundation (CCF) and cultured in RPMI 1640 medium supplemented with 10% fetal calf serum (FCS). […] SSG has been described previously (Yi, T., M. K. Pathak, D. J. Lindner, M. E. Ketterer, C. Farver, and E. C. Borden. 2002. Anticancer activity of sodium stibogluconate in synergy with IFNs. J Immunol 169:5978). For cell growth inhibition assays, cells were cultured in absence or presence of various amounts of SSG for 6 days with viable cells quantified by MTT assays as described elsewhere (Pathak, M. K., and T. Yi. 2001. Sodium stibogluconate is a potent inhibitor of protein tyrosine phosphatases and augments cytokine responses in hemopoietic cell lines. J Immunol 167:3391).

intracellular Flag-PRL-2 = molecular target: T2, intracellular Flag-PRL-2 (Homo sapiens, UniProt Q12974); test: Immunocomplex PTPase assay, Flag-PRL-2 NIH3T3 transfectants; assay type: cell-based
T2 construct: expressed in transfected cells; host or cells: NIH3T3 (pBabepuro, puromycin-selected)
T2 sequence (Q12974 whole entry): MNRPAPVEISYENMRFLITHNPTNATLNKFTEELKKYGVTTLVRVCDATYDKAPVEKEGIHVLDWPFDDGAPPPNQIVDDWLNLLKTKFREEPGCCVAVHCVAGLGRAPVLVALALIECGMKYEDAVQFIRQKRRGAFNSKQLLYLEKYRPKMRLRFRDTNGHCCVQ
Description: as §2, §3

O.O.O.O.O.O.O.O.O.O=C([O-])[C@@H]1[O][Sb]2([O-])([O][Sb]34([OH])[O][C@H]([C@H](O)CO)[C@H]([O]3)[C@H](C(=O)[O-])[O]4)[O][C@H]([C@H](O)CO)[C@@H]1[O]2.[Na+].[Na+].[Na+] [sodium stibogluconate]
response of C42 prostate cancer cell line (C42 cells): highly resistant
PTPase activity of immunocomplexes from treated Flag-PRL-1 transfectants (intracellular Flag-PRL-1): little PTPase activities
growth inhibition of DR cells (DR cells): complete or near complete killing
IFN-alpha-induced Stat1 tyrosine phosphorylation in WM35 and WiT49-N1 cell lines [1]: failed to enhance
Stat1 tyrosine phosphorylation in DR cells in the absence of IFN-alpha [1]: failed to induce
IFN-alpha-induced Stat1 tyrosine phosphorylation in DR cells ([1]; 10 μg/ml, 30 min post-stimulation): approximately two folds greater than control
IFN-alpha-induced Stat1 tyrosine phosphorylation in WM9 and DU145 cell lines ([1]; 5 hours post-stimulation): Enhanced
Renca cell growth in culture (Renca cells): failed to inhibit Renca cell proliferation in culture
time required for full removal of effect on intracellular PRL-2 activity (intracellular Flag-PRL-2): at least 24 hours
PTPase activity of immunocomplexes from treated Flag-PRL-2 transfectants (intracellular Flag-PRL-2; cells treated 5 min): lack of PTPase activity
